Results from patent US7736881B2, “Antibacterial and herbicidal compounds and system for screening the same” (University of Utah Research Foundation, priority 2000, dated 2010).
Entries after “also recorded” stand apart in the source; their conditions may differ.

How the values were obtained:
[1] = test system: Strain JC7623 dxs::pCAT53-3 transformed with pLME10 (R. capsulatus dxsB in pET11-A); assay: Screen for antimicrobial agent using strain JC7623 dxs::pCAT53-3 transformed with pLME10 (plate growth); type: cell-based, E. coli
[2] = test system: Strain RMC25 electroporated with pLME10 (R. capsulatus dxsB in pET11-A); assay: Screen for antimicrobial agent using strain RMC25 electroporated with pLME10 (plate growth); type: cell-based, S. typhimurium
[3] = LB/kan/ME/fosmidomycin, fosmidomycin ~4 μg/mL, ME 50 mg/L, after 1 day
[4] = after 2.5 days, fosmidomycin ~4 μg/mL, ME 50 mg/L

O=CN(O)CCCP(=O)(O)O [fosmidomycin]
growth on Plate F [1]: microcolonies | growth on plate F compared with plate C (LB/kan/MVA/arabinose without fosmidomycin) [1]: equal | growth on Plate E ([1]; LB/ka/IPTG/fosmidomycin, fosmidomycin ~4 μg/mL, IPTG 1 mM, after 2.5 days): no growth | growth on Plate G [1, 3]: colonies | growth on plate G compared with plate D (LB/kan/ME without fosmidomycin) [1, 4]: equal | growth on Plate F [2]: colonies | growth on plate F compared with plate C (LB/kan/MVA/arabinose without fosmidomycin) [2]: equal | growth on Plate E ([2]; LB/kan/IPTG/fosmidomycin, fosmidomycin ~4 μg/mL, IPTG 1 mM, after 2.5 days): no growth; also recorded: growth is inhibited | growth on Plate G [2, 3]: colonies | growth on plate G compared with plate D (LB/kan/ME without fosmidomycin) [2, 4]: equal
